Measurements as given in patent US5620958A, “Bradykinin antagonists” (Coretech, Inc., priority 1994, dated 1997).
Where two headings read alike, the source gives them in different places. Peptide text beside a SMILES is read from it.

Key:
[1] = molecular target: T1, NK1 receptor (Cavia porcellus, UniProt P30547); test: guinea pig ileum assay of NK1 receptor activity against substance P; type: cell-based; details: Table O
T1 construct: a standard guinea pig ileum assay of NK1 receptor activity; from tissue; host or cells: guinea pig ileum
Excerpt: In order to illustrate the potential of blocking two different receptor populations with a single compound a consensus NK1 receptor antagonist (DArg-DPro-Lys-Pro-Gln-Asn-DPhe-Phe-DTrp-Leu-Nle) was synthesized. […] Once the activity of this reference ligand was established, a series of lysine containing monomers formed by the systematic substitution of a lysine residue sequentially through the reference peptide was synthesized.

[2] = molecular target: T2, BK2 receptor (Rattus norvegicus, UniProt P25023); test: cell-based
T2 sequence (P25023 1-396): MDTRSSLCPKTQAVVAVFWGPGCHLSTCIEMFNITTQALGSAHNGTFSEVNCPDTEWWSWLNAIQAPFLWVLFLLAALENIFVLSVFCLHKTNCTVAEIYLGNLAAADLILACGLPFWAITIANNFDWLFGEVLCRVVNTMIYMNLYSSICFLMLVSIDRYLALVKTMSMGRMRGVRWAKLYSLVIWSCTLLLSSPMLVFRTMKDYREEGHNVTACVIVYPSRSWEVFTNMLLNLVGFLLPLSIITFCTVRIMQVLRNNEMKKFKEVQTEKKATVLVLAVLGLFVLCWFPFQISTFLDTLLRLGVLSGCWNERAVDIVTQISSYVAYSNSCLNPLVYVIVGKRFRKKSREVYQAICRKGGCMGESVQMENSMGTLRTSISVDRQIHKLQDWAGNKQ

[3] = molecular target: T3, BK2 receptor (Cavia porcellus, UniProt O70526); test: guinea-pig ileum (GPI) in vitro, antagonism of BK; type: cell-based
T3 construct: tested for activity on guinea pig ileum in vitro on the standard tissue bath/strain gauge system; from tissue; host or cells: guinea pig ileum
T3 sequence (O70526 1-372): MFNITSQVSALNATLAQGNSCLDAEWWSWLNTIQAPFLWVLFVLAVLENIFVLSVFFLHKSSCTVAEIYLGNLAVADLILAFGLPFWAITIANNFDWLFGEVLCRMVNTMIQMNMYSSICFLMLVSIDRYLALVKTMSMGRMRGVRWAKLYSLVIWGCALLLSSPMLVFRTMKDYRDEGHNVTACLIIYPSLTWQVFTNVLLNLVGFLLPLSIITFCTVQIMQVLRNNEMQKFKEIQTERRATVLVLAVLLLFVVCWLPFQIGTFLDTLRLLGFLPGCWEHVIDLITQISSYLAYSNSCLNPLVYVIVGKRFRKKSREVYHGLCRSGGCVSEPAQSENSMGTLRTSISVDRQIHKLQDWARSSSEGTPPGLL
Protocol: Thus, in vitro studies were performed on standard assay systems, namely, guinea-pig ileum (GPI), rat uterus (RU) and rabbit jugular vein (RJV). […] The potency of each compound was assessed as a pA2 value according to the method of Arunlakshana & Schild, Br. J. Pharmacol. Chemother., 1.4:48-58 (1959). The pA2 can be defined as the negative logarithm of the molar concentration of the antagonist in the presence of which the potency of the agonist is reduced two-fold, i.e., twice the amount of agonist is required to produce a given response in the presence of, than in the absence of, the antagonist. A high potency of antagonism is indicated by a high pA2 value, i.e., a low concentration of antagonist is effective.
The percentage recovery (% Rec) was also determined for compounds with respect to each assay.
The various compounds identified in Table B below were prepared following the procedure of Example 1 with the Cys moiety introduced into the parent CP-0088 at the position indicated followed by reaction between the sulfhydryl group of the Cys residue and BMH to provide dimers as indicated. The Cys-modified monomers and the resultant dimers were tested for activity on guinea pig ileum in vitro on the standard tissue bath/strain gauge system as before.

[4] = Table B, read-out: pA2 GUINEA PIG ILEUM (converted)

T1 sequence (P30547 whole entry): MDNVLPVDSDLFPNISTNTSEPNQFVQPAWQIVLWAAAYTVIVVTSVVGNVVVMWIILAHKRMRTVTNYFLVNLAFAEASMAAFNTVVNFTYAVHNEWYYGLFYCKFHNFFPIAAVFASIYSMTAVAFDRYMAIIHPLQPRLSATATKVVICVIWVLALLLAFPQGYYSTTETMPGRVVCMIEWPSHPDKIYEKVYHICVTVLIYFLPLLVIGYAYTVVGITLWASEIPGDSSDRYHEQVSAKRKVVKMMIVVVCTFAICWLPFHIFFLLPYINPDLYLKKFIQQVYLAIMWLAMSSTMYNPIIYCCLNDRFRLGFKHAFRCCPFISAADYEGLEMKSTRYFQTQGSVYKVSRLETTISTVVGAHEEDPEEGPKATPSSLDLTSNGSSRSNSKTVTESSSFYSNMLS

Structure (SMILES)	NK1 : GPI pA2 (± s.e.m.) [1]	Kb [2]	Kb [3, 4]	Kb ([3]; Table E, read-out: GPI pA2 (converted))
CCCC[C@H](NC(=O)[C@H](CC(C)C)NC(=O)[C@H](CCCCNC(=O)CCCCCN1C(=O)CC(SC[C@H](NC(=O)[C@H](Cc2ccccc2)NC(=O)CNC(=O)[C@@H]2C[C@@H](O)CN2C(=O)[C@@H]2CCCN2C(=O)[C@H](CCCNC(=N)N)NC(=O)[C@H](N)CCCNC(=N)N)C(=O)N[C@H](Cc2ccccc2)C(=O)N[C@@H](CC(C)C)C(=O)N[C@@H](CCCNC(=N)N)C(=O)O)C1=O)NC(=O)[C@H](Cc1ccccc1)NC(=O)[C@@H](Cc1ccccc1)NC(=O)[C@H](CC(N)=O)NC(=O)[C@H](CCC(N)=O)NC(=O)[C@@H]1CCCN1C(=O)[C@H](CCCCN)NC(=O)[C@H]1CCCN1C(=O)[C@H](N)CCCNC(=N)N)C(N)=O (stereo partly drawn) [CP-0398] (HELM PEPTIDE1{[dR].[dP].K.P.Q.N.[dF].F.K.L.[Nle].[am]}|PEPTIDE2{[dR].R.P.[Hyp].G.F.C.[dF].L.R}|CHEM1{[O=C1CC([*:2])C(=O)N1CCCCCC(=O)[*:1]]}$PEPTIDE1,CHEM1,9:R3-1:R1|PEPTIDE2,CHEM1,7:R3-1:R2$$$V2.0)	Inactive	0.398 µM	–	–
CCCC[C@H](NC(=O)[C@H](CC(C)C)NC(=O)[C@@H](Cc1c[nH]c2ccccc12)NC(=O)[C@H](Cc1ccccc1)NC(=O)[C@H](CCCCNC(=O)CCCCCN1C(=O)CC(SC[C@H](NC(=O)[C@H](Cc2ccccc2)NC(=O)CNC(=O)[C@@H]2C[C@@H](O)CN2C(=O)[C@@H]2CCCN2C(=O)[C@H](CCCNC(=N)N)NC(=O)[C@H](N)CCCNC(=N)N)C(=O)N[C@H](Cc2ccccc2)C(=O)N[C@@H](CC(C)C)C(=O)N[C@@H](CCCNC(=N)N)C(=O)O)C1=O)NC(=O)[C@H](CC(N)=O)NC(=O)[C@H](CCC(N)=O)NC(=O)[C@@H]1CCCN1C(=O)[C@H](CCCCN)NC(=O)[C@H]1CCCN1C(=O)[C@H](N)CCCNC(=N)N)C(N)=O (stereo partly drawn) [CP-0396] (HELM PEPTIDE1{[dR].[dP].K.P.Q.N.K.F.[dW].L.[Nle].[am]}|PEPTIDE2{[dR].R.P.[Hyp].G.F.C.[dF].L.R}|CHEM1{[O=C1CC([*:2])C(=O)N1CCCCCC(=O)[*:1]]}$PEPTIDE1,CHEM1,7:R3-1:R1|PEPTIDE2,CHEM1,7:R3-1:R2$$$V2.0)	Inactive	0.01 µM	–	–
CC(C)C[C@H](NC(=O)[C@@H](Cc1ccccc1)NC(=O)[C@H](CO)NC(=O)[C@H](Cc1ccccc1)NC(=O)CNC(=O)[C@@H]1C[C@@H](O)CN1C(=O)[C@@H]1CCCN1C(=O)[C@H](CCCNC(=N)N)NC(=O)[C@@H](N)CS)C(=O)N[C@@H](CCCNC(=N)N)C(=O)O [CP-0140] (HELM PEPTIDE1{C.R.P.[Hyp].G.F.S.[dF].L.R}$$$$V2.0)	–	0.0794 µM	0.2 µM	–
CC(C)C[C@H](NC(=O)[C@@H](Cc1ccccc1)NC(=O)[C@H](CO)NC(=O)[C@H](Cc1ccccc1)NC(=O)CNC(=O)[C@@H]1C[C@@H](O)CN1C(=O)[C@@H]1CCCN1C(=O)[C@H](CCCNC(=N)N)NC(=O)[C@@H](N)CSC1CC(=O)N(CCCCCCN2C(=O)CC(SC[C@H](N)C(=O)N[C@@H](CCCNC(=N)N)C(=O)N3CCC[C@H]3C(=O)N3C[C@H](O)C[C@H]3C(=O)NCC(=O)N[C@@H](Cc3ccccc3)C(=O)N[C@@H](CO)C(=O)N[C@H](Cc3ccccc3)C(=O)N[C@@H](CC(C)C)C(=O)N[C@@H](CCCNC(=N)N)C(=O)O)C2=O)C1=O)C(=O)N[C@@H](CCCNC(=N)N)C(=O)O (stereo partly drawn) [CP-0152] (HELM PEPTIDE1{C.R.P.[Hyp].G.F.S.[dF].L.R}|PEPTIDE2{C.R.P.[Hyp].G.F.S.[dF].L.R}|CHEM1{[O=C1CC([*:1])C(=O)N1CCCCCCN1C(=O)CC([*:2])C1=O]}$PEPTIDE1,CHEM1,1:R3-1:R1|PEPTIDE2,CHEM1,1:R3-1:R2$$$V2.0)	–	–	> 1 µM	–
CC(C)C[C@H](NC(=O)[C@@H](Cc1ccccc1)NC(=O)[C@H](CSSC[C@H](NC(=O)[C@H](Cc1ccccc1)NC(=O)CNC(=O)[C@@H]1C[C@@H](O)CN1C(=O)[C@@H]1CCCN1C(=O)[C@H](CCCNC(=N)N)NC(=O)[C@H](N)CCCNC(=N)N)C(=O)N[C@H](Cc1ccccc1)C(=O)N[C@@H](CC(C)C)C(=O)N[C@@H](CCCNC(=N)N)C(=O)O)NC(=O)[C@H](Cc1ccccc1)NC(=O)CNC(=O)[C@@H]1C[C@@H](O)CN1C(=O)[C@@H]1CCCN1C(=O)[C@H](CCCNC(=N)N)NC(=O)[C@H](N)CCCNC(=N)N)C(=O)N[C@@H](CCCNC(=N)N)C(=O)O [CP-0138] (HELM PEPTIDE1{[dR].R.P.[Hyp].G.F.C.[dF].L.R}|PEPTIDE2{[dR].R.P.[Hyp].G.F.C.[dF].L.R}$PEPTIDE1,PEPTIDE2,7:R3-7:R3$$$V2.0)	–	0.01 µM	–	0.0631 µM
CC(C)C[C@H](NC(=O)[C@@H](Cc1ccccc1)NC(=O)[C@H](CO)NC(=O)[C@H](Cc1ccccc1)NC(=O)CNC(=O)[C@@H]1C[C@@H](O)CN1C(=O)[C@@H]1CCCN1C(=O)[C@H](CSC1CC(=O)N(CCCCCCN2C(=O)CC(SC[C@H](NC(=O)[C@H](N)CCCNC(=N)N)C(=O)N3CCC[C@H]3C(=O)N3C[C@H](O)C[C@H]3C(=O)NCC(=O)N[C@@H](Cc3ccccc3)C(=O)N[C@@H](CO)C(=O)N[C@H](Cc3ccccc3)C(=O)N[C@@H](CC(C)C)C(=O)N[C@@H](CCCNC(=N)N)C(=O)O)C2=O)C1=O)NC(=O)[C@H](N)CCCNC(=N)N)C(=O)N[C@@H](CCCNC(=N)N)C(=O)O (stereo partly drawn) [CP-0153] (HELM PEPTIDE1{[dR].C.P.[Hyp].G.F.S.[dF].L.R}|PEPTIDE2{[dR].C.P.[Hyp].G.F.S.[dF].L.R}|CHEM1{[O=C1CC([*:1])C(=O)N1CCCCCCN1C(=O)CC([*:2])C1=O]}$PEPTIDE1,CHEM1,2:R3-1:R1|PEPTIDE2,CHEM1,2:R3-1:R2$$$V2.0)	–	–	0.0251 µM	–
CC(C)C[C@H](NC(=O)[C@@H](Cc1ccccc1)NC(=O)[C@H](CO)NC(=O)[C@H](Cc1ccccc1)NC(=O)CNC(=O)[C@@H]1C[C@@H](O)CN1C(=O)[C@H](CS)NC(=O)[C@H](CCCNC(=N)N)NC(=O)[C@H](N)CCCNC(=N)N)C(=O)N[C@@H](CCCNC(=N)N)C(=O)O [CP-0142] (HELM PEPTIDE1{[dR].R.C.[Hyp].G.F.S.[dF].L.R}$$$$V2.0)	–	–	> 1 µM	–
CC(C)C[C@H](NC(=O)[C@@H](Cc1ccccc1)NC(=O)[C@H](CO)NC(=O)[C@H](Cc1ccccc1)NC(=O)CNC(=O)[C@@H]1C[C@@H](O)CN1C(=O)[C@H](CSC1CC(=O)N(CCCCCCN2C(=O)CC(SC[C@H](NC(=O)[C@H](CCCNC(=N)N)NC(=O)[C@H](N)CCCNC(=N)N)C(=O)N3C[C@H](O)C[C@H]3C(=O)NCC(=O)N[C@@H](Cc3ccccc3)C(=O)N[C@@H](CO)C(=O)N[C@H](Cc3ccccc3)C(=O)N[C@@H](CC(C)C)C(=O)N[C@@H](CCCNC(=N)N)C(=O)O)C2=O)C1=O)NC(=O)[C@H](CCCNC(=N)N)NC(=O)[C@H](N)CCCNC(=N)N)C(=O)N[C@@H](CCCNC(=N)N)C(=O)O (stereo partly drawn) [CP-0154] (HELM PEPTIDE1{[dR].R.C.[Hyp].G.F.S.[dF].L.R}|PEPTIDE2{[dR].R.C.[Hyp].G.F.S.[dF].L.R}|CHEM1{[O=C1CC([*:1])C(=O)N1CCCCCCN1C(=O)CC([*:2])C1=O]}$PEPTIDE1,CHEM1,3:R3-1:R1|PEPTIDE2,CHEM1,3:R3-1:R2$$$V2.0)	–	–	0.126 µM	–
